Values quoted from earlier work as cited in patent US20140271772A1, “BIODEGRADABLE SUBCUTANEOUS IMPLANTS AND METHODS OF MAKING” (priority 2013, published 2014).

- oral bioavailability: 10-30%
Compound: Nc1nc2c(ncn2COCCO)c(=O)[nH]1 [acyclovir]
- toxicity to cats (cats): toxic to cats
